Laboratory results published in US20260184687A1, “DIHYDROINDENE DERIVATIVES AS MALT1 INHIBITORS” (C4X Discovery Limited, priority 2022, published 2026).

The compounds below were run against T1, FL hMALT1 enzyme (Homo sapiens, UniProt Q9UDY8) (assay: biochemical).
T1 sequence (Q9UDY8 1-824): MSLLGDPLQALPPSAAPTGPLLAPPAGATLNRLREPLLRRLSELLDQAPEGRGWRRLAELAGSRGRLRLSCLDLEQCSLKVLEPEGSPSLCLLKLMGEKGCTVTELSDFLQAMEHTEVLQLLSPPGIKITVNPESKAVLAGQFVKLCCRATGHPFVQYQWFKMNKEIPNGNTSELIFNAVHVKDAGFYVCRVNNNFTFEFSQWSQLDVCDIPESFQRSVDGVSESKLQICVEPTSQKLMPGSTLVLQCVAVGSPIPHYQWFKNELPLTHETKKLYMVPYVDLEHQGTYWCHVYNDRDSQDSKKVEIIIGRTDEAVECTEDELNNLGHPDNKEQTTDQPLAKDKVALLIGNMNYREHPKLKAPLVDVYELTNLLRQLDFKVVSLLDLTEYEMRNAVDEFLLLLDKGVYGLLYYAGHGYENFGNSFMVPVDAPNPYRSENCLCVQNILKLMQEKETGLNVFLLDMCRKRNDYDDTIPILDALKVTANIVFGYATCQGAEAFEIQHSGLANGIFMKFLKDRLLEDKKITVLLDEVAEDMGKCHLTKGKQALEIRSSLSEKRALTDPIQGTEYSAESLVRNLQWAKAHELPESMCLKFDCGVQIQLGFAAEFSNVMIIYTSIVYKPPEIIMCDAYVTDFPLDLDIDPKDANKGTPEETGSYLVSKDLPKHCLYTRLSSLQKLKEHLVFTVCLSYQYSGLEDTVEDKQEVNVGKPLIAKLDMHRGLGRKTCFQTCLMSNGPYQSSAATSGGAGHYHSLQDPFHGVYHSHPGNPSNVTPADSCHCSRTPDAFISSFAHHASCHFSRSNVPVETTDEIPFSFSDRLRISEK
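Note: Cell-free protease assay: enzyme preincubated with compound 30 min at room temperature, then cleavage of fluorogenic Ac-LVSR-AMC substrate (100 µM) tracked by fluorescence (ex 360/em 460 nm).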

Structure (SMILES) | IC50 [nM]
CN(C(=O)CN1CCNC1=O)[C@@H](c1ccc(NC2Cc3ccccc3C2(C)C)cn1)C(F)(F)F (single isomer, unassigned) [Example 245] | 130
CN(C(=O)C1CC2(CCN2CCO)C1)[C@@H](c1ccc(NC2Cc3ccccc3C2(C)C)cn1)C(F)(F)F (single isomer, unassigned) [Example 248] | 140
CN(C(=O)C1CCS(=O)(=O)CC1)[C@@H](c1ccc(NC2Cc3ccc(C(F)(F)F)cc3C2)cn1)C(F)(F)F (single isomer, unassigned) [Example 256] | 1100
CN(C(=O)C1CCS(=O)(=O)CC1)[C@@H](c1ccc(NC2Cc3ccc(F)cc3C2)cn1)C(F)(F)F (single isomer, unassigned) [Example 259] | 180
CN(C(=O)C1CCS(=O)(=O)CC1)[C@@H](c1ccc(NC2Cc3cc(F)cc(F)c3C2)cn1)C(F)(F)F (single isomer, unassigned) [Example 268] | 3400
CN(C(=O)C1CCS(=O)(=O)CC1)[C@@H](c1ccc(NC2Cc3cc(F)cc(F)c3C2)cn1)C(F)(F)F (single isomer, unassigned) [Example 269] | 150
CN(C(=O)C1CCS(=O)(=O)CC1)[C@@H](c1ccc(NC2Cc3cc(Cl)cc(F)c3C2)cn1)C(F)(F)F (single isomer, unassigned) [Example 271] | 3300
CN(C(=O)C1CCS(=O)(=O)CC1)[C@@H](c1ccc(NC2Cc3cccc(F)c3C2)cn1)C(F)(F)F (single isomer, unassigned) [Example 274] | 280
CN(C(=O)C1CCS(=O)(=O)CC1)[C@@H](c1ccc(NC2Cc3cccc(F)c3C2)cn1)C(F)(F)F (single isomer, unassigned) [Example 275] | 520
CN(C(=O)C1CCS(=O)(=O)CC1)[C@@H](c1ccc(NC2Cc3ccc(Cl)c(Cl)c3C2)cn1)C(F)(F)F (single isomer, unassigned) [Example 278] | 350
CN(C(=O)C1CCS(=O)(=O)CC1)[C@@H](c1ccc(NC2Cc3cccc(C(F)(F)F)c3C2)nc1)C(F)(F)F (single isomer, unassigned) [Example 280] | 860
CN(C(=O)C1CCS(=O)(=O)CC1)[C@@H](c1ccc(NC2Cc3cc(Cl)cc(Cl)c3C2)cn1)C(F)(F)F (single isomer, unassigned) [Example 282] | 340
CN(C(=O)C1CCS(=O)(=O)CC1)[C@@H](c1ccc(NC2Cc3ccc(Br)cc3C2)cn1)C(F)(F)F (single isomer, unassigned) [Example 285] | 690
CN(C(=O)C1CCS(=O)(=O)CC1)[C@@H](c1ccc(NC2Cc3cc(F)c(F)c(F)c3C2)cn1)C(F)(F)F (single isomer, unassigned) [Example 295] | 1900
CN(C(=O)C1CCS(=O)(=O)CC1)[C@@H](c1ccc(NC2Cc3ccc(C4CC4)cc3C2)cn1)C(F)(F)F (single isomer, unassigned) [Example 308] | 1400
CN(C(=O)C1CCN(S(C)(=O)=O)CC1)[C@@H](c1ccc(NC2Cc3ccc(Cl)c(Cl)c3C2)cn1)C(F)(F)F (single isomer, unassigned) [Example 326] | 240
CNC(=O)N1CC(C(=O)N(C)[C@@H](c2ccc(NC3Cc4ccc(Cl)c(Cl)c4C3)cn2)C(F)(F)F)C1 (single isomer, unassigned) [Example 334] | 300
CN(C(=O)[C@H]1CCC(=O)NC1)[C@@H](c1ccc(NC2Cc3ccc(Cl)c(F)c3C2)cn1)C(F)(F)F (single isomer, unassigned) [Example 336] | 690
CN(C(=O)[C@H]1CNC(=O)C1)[C@@H](c1ccc(NC2Cc3ccc(Cl)c(F)c3C2)nc1)C(F)(F)F (single isomer, unassigned) [Example 338] | 960
CN(C(=O)C1CC2(CCC(=O)N2)C1)[C@@H](c1ccc(NC2Cc3ccc(Cl)c(Cl)c3C2)cn1)C(F)(F)F (single isomer, unassigned) [Example 340] | 560
CN(C(=O)C1CC2(CCC(=O)N2)C1)[C@@H](c1ccc(NC2Cc3ccc(Cl)c(Cl)c3C2)cn1)C(F)(F)F (single isomer, unassigned) [Example 342] | 1320

Other lines, results leading:

IC50 [nM] | Structure (SMILES)
200 | COCCN1CCC12CC(C(=O)N(C)[C@@H](c1ccc(NC3Cc4ccccc4C3(C)C)cn1)C(F)(F)F)C2 (single isomer, unassigned) [Example 242]
330 | CN(C(=O)CN1CCNC1=O)[C@@H](c1ccc(NC2Cc3ccccc3C2(C)C)cn1)C(F)(F)F (single isomer, unassigned) [Example 246]
110 | CN(C(=O)C1CCS(=O)(=O)CC1)[C@@H](c1ccc(NC2Cc3ccc(C(F)(F)F)cc3C2)cn1)C(F)(F)F (single isomer, unassigned) [Example 255]
2000 | CN(C(=O)C1CCS(=O)(=O)CC1)[C@@H](c1ccc(NC2Cc3cccc(C#N)c3C2)cn1)C(F)(F)F (single isomer, unassigned) [Example 257]
4500 | CN(C(=O)C1CCS(=O)(=O)CC1)[C@@H](c1ccc(NC2Cc3ccc(F)cc3C2)cn1)C(F)(F)F (single isomer, unassigned) [Example 258]
1200 | CN(C(=O)C1CCS(=O)(=O)CC1)[C@@H](c1ccc(NC2Cc3cccc(Cl)c3C2)cn1)C(F)(F)F (single isomer, unassigned) [Example 264]
1600 | CN(C(=O)C1CCS(=O)(=O)CC1)[C@@H](c1ccc(NC2Cc3ccc(F)c(Cl)c3C2)cn1)C(F)(F)F (single isomer, unassigned) [Example 266]
780 | CN(C(=O)C1CCS(=O)(=O)CC1)[C@@H](c1ccc(NC2Cc3ccc(Cl)c(F)c3C2)cn1)C(F)(F)F (single isomer, unassigned) [Example 276]
910 | CN(C(=O)C1CCS(=O)(=O)CC1)[C@@H](c1ccc(NC2Cc3cc(Cl)cc(Cl)c3C2)cn1)C(F)(F)F (single isomer, unassigned) [Example 283]
730 | CN(C(=O)C1CCS(=O)(=O)CC1)[C@@H](c1ccc(NC2Cc3cc(F)cc(Cl)c3C2)cn1)C(F)(F)F (single isomer, unassigned) [Example 286]
290 | CN(C(=O)C1CCS(=O)(=O)CC1)[C@@H](c1ccc(NC2Cc3cc(F)cc(Cl)c3C2)cn1)C(F)(F)F (single isomer, unassigned) [Example 287]
1640 | CN(C(=O)C1CCS(=O)(=O)CC1)[C@@H](c1ccc(NC2Cc3ccc(Cl)cc3C2)nc1)C(F)(F)F (single isomer, unassigned) [Example 288]
2400 | CN(C(=O)C1CCS(=O)(=O)CC1)[C@@H](c1ccc(NC2Cc3c(F)ccc(Cl)c3C2)cn1)C(F)(F)F (single isomer, unassigned) [Example 294]
1400 | CN(C(=O)C1CCS(=O)(=O)CC1)[C@@H](c1ccc(NC2Cc3cc(F)c(F)c(F)c3C2)cn1)C(F)(F)F (single isomer, unassigned) [Example 296]
300 | CN(C(=O)C1CCS(=O)(=O)CC1)[C@@H](c1ccc(NC2Cc3ccc(Cl)c(C4CC4)c3C2)cn1)C(F)(F)F (single isomer, unassigned) [Example 305]
220 | CN(C(=O)C1CCS(=O)(=O)CC1)[C@@H](c1ccc(NC2Cc3ccc(C4CC4)cc3C2)cn1)C(F)(F)F (single isomer, unassigned) [Example 307]
300 | CN(C(=O)C1CCS(=O)(=O)CC1)[C@@H](c1ccc(NC2Cc3ccc(Cl)c(C(F)(F)F)c3C2)cn1)C(F)(F)F (single isomer, unassigned) [Example 311]
190 | CN(C(=O)C1CCNC(=O)C1)[C@@H](c1ccc(N[C@H]2Cc3ccc(Cl)cc3C2)cn1)C(F)(F)F (single isomer, unassigned) [Example 313]
1100 | CN(C(=O)[C@@H]1CNC(=O)C1)[C@@H](c1ccc(N[C@H]2Cc3ccc(Cl)c(F)c3C2)cn1)C(F)(F)F (single isomer, unassigned) [Example 316]
660 | CN(C(=O)[C@@H]1CNC(=O)C1)[C@@H](c1ccc(NC2Cc3ccc(Cl)c(Cl)c3C2)cn1)C(F)(F)F (single isomer, unassigned) [Example 318]
750 | CN(C(=O)[C@H]1CCC(=O)NC1)[C@@H](c1ccc(NC2Cc3ccc(Cl)c(Cl)c3C2)cn1)C(F)(F)F (single isomer, unassigned) [Example 320]
310 | CN(C(=O)C12CC(NS(C)(=O)=O)(C1)C2)[C@@H](c1ccc(NC2Cc3ccc(Cl)c(Cl)c3C2)cn1)C(F)(F)F (single isomer, unassigned) [Example 322]
570 | CN(C(=O)[C@@H]1CNC(=O)C1)[C@@H](c1ccc(NC2Cc3ccc(Cl)c(C4CC4)c3C2)cn1)C(F)(F)F (single isomer, unassigned) [Example 327]
680 | CN(C(=O)[C@H]1CCC(=O)NC1)[C@@H](c1ccc(NC2Cc3ccc(Cl)c(C4CC4)c3C2)cn1)C(F)(F)F (single isomer, unassigned) [Example 329]
400 | CN(C(=O)C1CCS(=O)(=O)CC1)[C@@H](c1ccc(NC2Cc3ccc(Cl)c(F)c3C2)nc1)C(F)(F)F (single isomer, unassigned) [Example 331]
